From patent EP4781984A1 (Beyang Therapeutics Co., Ltd., priority 2023, dated 2025)
≈ marks a conversion by molar mass, not a printed value.

Columns and labels:
[1] = Thermodynamic solubility test; format: physicochemical; settings: buffer solution, aqueous buffer, thermodynamic from solid; thermodynamic solubility, room temperature, 8 hours shaking; buffers pH 2.0, 6.5, 7.4 used, pH of the tabulated value not given
Procedure: Solubility Test of Compounds
Table 9. Reagents and Instruments
After sonication for 10 minutes, they were fixed on a shaker and shaken at room temperature for 8 hours. After shaking, they were sonicated for 10 minutes and centrifuged at 13000 rpm for 15 minutes. 0.1 mL of supernatant was aspirated into a new tube, rinsed with 5 mL of buffer by shaking, and the liquid was discarded. 0.5 mL of supernatant was transferred again to a new tube, centrifuged at 13000 rpm for 15 minutes, and the supernatant was taken (diluted with water if necessary) for LC-MS injection analysis. Sample concentrations were quantified using a 3-5 point calibration curve.

melanin = test: Compound binding to melanin; format: in vitro ADME; settings: cuttlefish (Sepia officinalis), melanin suspension (1 mg/mL), percentage of free drug (not bound to melanin), 2 µM compound, melanin 1 mg/mL in PBS pH 7.4, 37°C
From the text: Detection of Compound Binding to Melanin
Pigmented ocular tissues contain melanin within intracellular melanosomes. Drugs bind to melanin to varying degrees, from no binding to extensive binding. Therefore, melanin binding is an important characteristic affecting ocular drug delivery and biodistribution. The ability of compounds to bind to melanin must be considered in ocular drug development.
Melanin derived from cuttlefish (Sepia officinalis) melanin was purchased from Sigma Aldrich (St Louis, MO).
First, prepare a 1 mg/mL melanin suspension in PBS (pH 7.4). As a matrix washing step, suspended particles were centrifuged at 3000 rpm for 5 minutes. The resulting pellet was resuspended in fresh PBS buffer, heated to 37°C with continuous shaking, and incubated for 1 hour. Accurately pipette 2 microliters of test compound stock solution (0.1 mM) into 98 microliters of melanin suspension (1 mg/mL), resulting in a final incubation concentration of 2 µM. Similarly, accurately pipette 2 microliters of stock solution (0.1 mM) into 98 microliters of PBS buffer (containing 0.1% BSA) as a blank control sample. Samples were incubated at 37°C for 2 hours on a shaker (80-90 rpm). Then centrifuged at room temperature. 50 microliters of supernatant was aspirated and added to 50 microliters of precipitation agent (containing internal standard). All samples above were subjected to protein precipitation, centrifuged, the supernatant was taken, diluted with water (if necessary), and then injected for analysis. Simultaneously, high-binding compounds Sunitinib and chloroquine, and the low-binding compound celecoxib were measured as positive controls. An LC-MS/MS analytical method for determining compound concentration was established. The ratio of analyte/internal standard peak areas (Aanalyte/AIS) measured in the samples, calibrated by the dilution factor, was used as the surrogate concentration for data processing. The binding rate of the compound to melanin (Fb) is calculated by the formula: Fb = 100−(Ctest)/(Ccontrol) × 100% [formula]
Ctest is the drug concentration of the compound in the melanin incubation sample or the peak area ratio of the test compound to the internal standard. Ccontrol is the drug concentration of the compound in the blank control sample or the peak area ratio of the test compound to the internal standard. Percentage of free drug (Fu%) = 100 - Fb The binding rates of the compounds of the present invention to melanin are shown in the table below: Table 11. Binding Rate of Compounds to Melanin

EGFR = molecular target: T1, EGFR (Homo sapiens, UniProt P00533); test: Kinase inhibitory activity, Mobility Shift Assay (EGFR); format: biochemical
T1 construct: purchased Carna 08-115
Procedure: Assay for Inhibitory Activity of Compounds Against VEGFR and EGFR Kinases
This assay directly monitors the inhibitory activity of compounds on kinase phosphorylation by measuring non-phosphorylated and phosphorylated substrates in the kinase reaction using Mobility Shift Assays/IMAP™ analysis. Table 2. Reagents and Instruments
Kinase and DTT were added to 1X kinase buffer to form a 2.5X kinase solution; 10 µL of the 2.5X kinase solution was transferred to a 384-well reaction plate, and 1X kinase buffer was added to the negative control wells. The plate was incubated at room temperature for 10 minutes; FAM-labeled peptide, MgCl2, ATP, and other reagents were added to 1X kinase buffer to form a 2.5X substrate solution; 10 µL of the above 2.5X substrate solution was transferred to the 384-well reaction plate; the plate was incubated at 28°C for varying times, and then 25 µL of stop solution was added to the 384-well reaction plate to terminate the reaction. Conversion rate data were read on a CaliperEZ Reader II. […] IC50 values were fitted using XLFit excel add-in version 5.4.0.8. Y = Bottom + (Top−Bottom)/(1 + […]) [formula]
X is the log value of compound concentration, Y is the inhibition rate (% inhibition).

T1 sequence (P00533 25-1210): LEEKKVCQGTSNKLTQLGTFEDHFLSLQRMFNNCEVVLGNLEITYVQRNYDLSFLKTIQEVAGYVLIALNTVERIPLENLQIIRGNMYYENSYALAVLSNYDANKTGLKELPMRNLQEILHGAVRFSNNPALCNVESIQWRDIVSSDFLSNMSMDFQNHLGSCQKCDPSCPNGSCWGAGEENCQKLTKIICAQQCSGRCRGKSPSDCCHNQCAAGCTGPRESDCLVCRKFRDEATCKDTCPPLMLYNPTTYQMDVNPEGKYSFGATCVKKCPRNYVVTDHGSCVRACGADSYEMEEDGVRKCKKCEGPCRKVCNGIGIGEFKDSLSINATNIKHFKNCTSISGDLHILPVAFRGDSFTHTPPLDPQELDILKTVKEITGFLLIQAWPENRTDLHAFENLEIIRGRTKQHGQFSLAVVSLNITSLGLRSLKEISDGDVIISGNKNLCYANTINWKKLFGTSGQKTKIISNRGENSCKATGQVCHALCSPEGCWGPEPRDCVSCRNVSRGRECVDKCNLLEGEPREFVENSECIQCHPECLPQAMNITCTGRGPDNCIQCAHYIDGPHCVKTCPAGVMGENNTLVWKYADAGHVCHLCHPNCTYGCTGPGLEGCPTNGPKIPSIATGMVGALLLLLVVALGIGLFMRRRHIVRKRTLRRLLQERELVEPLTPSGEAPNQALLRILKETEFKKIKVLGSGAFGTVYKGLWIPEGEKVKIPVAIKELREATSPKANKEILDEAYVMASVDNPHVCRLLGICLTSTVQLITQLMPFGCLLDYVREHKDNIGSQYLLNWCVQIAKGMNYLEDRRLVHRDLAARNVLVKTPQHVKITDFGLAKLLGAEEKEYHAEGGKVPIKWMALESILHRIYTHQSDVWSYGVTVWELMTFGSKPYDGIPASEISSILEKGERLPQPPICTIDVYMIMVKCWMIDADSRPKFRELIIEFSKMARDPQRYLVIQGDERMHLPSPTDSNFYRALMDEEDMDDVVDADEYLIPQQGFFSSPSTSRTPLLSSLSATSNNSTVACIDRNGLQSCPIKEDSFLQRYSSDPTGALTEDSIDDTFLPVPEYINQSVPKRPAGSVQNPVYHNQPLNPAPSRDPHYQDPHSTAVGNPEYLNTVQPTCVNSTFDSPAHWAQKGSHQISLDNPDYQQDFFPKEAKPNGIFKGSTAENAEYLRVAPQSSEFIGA

| SMILES | solubility at 8 h [1] | fraction unbound at 2 h, 2 µM (melanin) | IC50 (EGFR) |
| --- | --- | --- | --- |
| O=C(NC1CC1)c1ccccc1Sc1ccc2c(/C=C/c3ccc(OCCN4CCCC4)cn3)n[nH]c2c1 [Compound I-8, N-cyclopropyl-2-((3-((E)-2-(5-(2-(pyrrolidin-1-yl)ethoxy)pyridin-2-yl)ethenyl)-1H-indazol-6-yl)thio)benzamide] | 1870 µg/mL (≈ 3560 µM) | 0.01 to 0.05 | – |
| CNC(=O)c1ccccc1Sc1ccc2c(/C=C/c3cnn(CCN4CCCC4)c3)n[nH]c2c1 [Compound I-9] | 363 µg/mL (≈ 768 µM) | 0.01 to 0.05 | – |
| CNC(=O)c1ccccc1Sc1ccc2c(/C=C/c3ccn(CCCN4CCCC4)n3)n[nH]c2c1 [Compound I-11] | 866 µg/mL (≈ 1780 µM) | 0.01 to 0.05 | – |
| CNC(=O)c1ccccc1Sc1ccc2c(/C=C/c3cccc(OCCN4CCCC4)c3)n[nH]c2c1 [Compound I-15] | 78.8 µg/mL (≈ 158 µM) | 0.01 to 0.05 | – |
| CNC(=O)c1ccccc1Sc1ccc2c(C#Cc3ccc(OCCN4CCCC4)cn3)n[nH]c2c1 [Compound I-16] | 27.2 µg/mL (≈ 54.7 µM) | ≤ 0.01 | – |
| CNC(=O)c1ccccc1Sc1ccc2c(/C=C/c3cccc(OCCN4CCCC4)n3)n[nH]c2c1 [Compound I-17] | 278 µg/mL (≈ 556 µM) | 0.01 to 0.05 | – |
| CNC(=O)c1ccccc1Sc1ccc2c(/C=C/c3ccnc(OCCN4CCCC4)c3)n[nH]c2c1 [Compound I-18] | – | 0.01 to 0.05 | – |
| CNC(=O)c1ccccc1Sc1ccc2c(/C=C/c3cc(OCCN4CCCC4)ccn3)n[nH]c2c1 [Compound I-20] | 128 µg/mL (≈ 256 µM) | 0.01 to 0.05 | – |
| CNC(=O)c1ccccc1Sc1cnc2c(/C=C/c3ccccn3)n[nH]c2c1 [Compound I-21, N-methyl-2-({3-[(E)-2-(pyridin-2-yl)ethenyl]-1H-pyrazolo[4,3-b]pyridin-6-yl}sulfanyl)benzamide] | 0.9 µg/mL (≈ 2.32 µM) | 0.01 to 0.05 | – |
| CNC(=O)c1cccc(F)c1Sc1ccc2c(/C=C/c3ccc(OCCN4CCCC4)cn3)n[nH]c2c1 [Compound I-33, 3-fluoro-N-methyl-2-({3-[(E)-2-{5-[2-(pyrrolidin-1-yl)ethoxy]pyridin-2-yl}ethenyl]-1H-indazol-6-yl}sulfanyl)benzamide] | 57.7 µg/mL (≈ 111 µM) | > 0.05 | – |
| CNC(=O)c1cc(F)ccc1Sc1ccc2c(/C=C/c3ccc(OCCN4CCCC4)cn3)n[nH]c2c1 [Compound I-34, 5-fluoro-N-methyl-2-({3-[(E)-2-{5-[2-(pyrrolidin-1-yl)ethoxy]pyridin-2-yl}ethenyl]-1H-indazol-6-yl}sulfanyl)benzamide] | 19.3 µg/mL (≈ 37.3 µM) | > 0.05 | – |
| CNC(=O)c1ccc(F)cc1Sc1ccc2c(/C=C/c3ccc(OCCN4CCCC4)cn3)n[nH]c2c1 [Compound I-35, 4-fluoro-N-methyl-2-({3-[(E)-2-{5-[2-(pyrrolidin-1-yl)ethoxy]pyridin-2-yl}ethenyl]-1H-indazol-6-yl}sulfanyl)benzamide] | 26.6 µg/mL (≈ 51.4 µM) | 0.01 to 0.05 | – |
| O=C(NC1CC1)c1ccccc1Sc1ccc2c(/C=C/c3ccc(CN4CCCC4)cn3)n[nH]c2c1 [Compound I-41] | – | > 0.05 | – |
| O=C(NC1CC1)c1ccccc1Sc1ccc2c(/C=C/c3cnn(CCCN4CCCC4)c3)n[nH]c2c1 [Compound I-43] | 71.6 µg/mL (≈ 140 µM) | 0.01 to 0.05 | – |
| CN(C)CCOc1ccc(/C=C/c2n[nH]c3cc(Sc4ccccc4C(=O)NC4CC4)ccc23)nc1 [Compound I-51, N-cyclopropyl-2-({3-[(E)-2-{5-[2-(dimethylamino)ethoxy]pyridin-2-yl}ethenyl]-1H-indazol-6-yl}sulfanyl)benzamide] | – | 0.01 to 0.05 | – |
| CCN(CC)CCOc1ccc(/C=C/c2n[nH]c3cc(Sc4ccccc4C(=O)NC4CC4)ccc23)nc1 [Compound I-52] | – | > 0.05 | – |
| O=C(NC1CC1)c1ccccc1Sc1ccc2c(/C=C/c3ccc(OCCN4CCCCC4)cn3)n[nH]c2c1 [Compound I-53] | – | > 0.05 | – |

| SMILES | solubility at 8 h [1] | fraction unbound at 2 h, 2 µM (melanin) | IC50 (EGFR) |
| --- | --- | --- | --- |
| O=C(NC1CC1)c1ccccc1Sc1ccc2c(/C=C/c3cnn(CCN4CCCC4)c3)n[nH]c2c1 [Compound I-61] | – | 0.01 to 0.05 | – |
| CCNC(=O)c1ccccc1Sc1ccc2c(/C=C/c3ccc(CN4CCCC4)cn3)n[nH]c2c1 [Compound I-73, N-ethyl-2-({3-[(E)-2-{5-[(pyrrolidin-1-yl)methyl]pyridin-2-yl}ethenyl]-1H-indazol-6-yl}thio)benzamide] | – | 0.01 to 0.05 | – |
| CNC(=O)c1cccc(F)c1Sc1ccc2c(/C=C/c3cnn(CCCN4CCCC4)c3)n[nH]c2c1 [Compound I-76] | 1770 µg/mL (≈ 3520 µM) | > 0.05 | – |
| CCN(CC)Cc1ccc(/C=C/c2n[nH]c3cc(Sc4ccccc4C(=O)NC4CC4)ccc23)nc1 [Compound I-78] | 27.6 µg/mL (≈ 55.5 µM) | 0.01 to 0.05 | – |
| O=C(NC1CC1)c1cc(F)ccc1Sc1ccc2c(/C=C/c3ccc(CN4CCCC4)cn3)n[nH]c2c1 [Compound I-80] | 199 µg/mL (≈ 387 µM) | 0.01 to 0.05 | – |
| CCN(CC)Cc1ccc(/C=C/c2n[nH]c3cc(Sc4cc(F)ccc4C(=O)NC4CC4)ccc23)nc1 [Compound I-83, N-cyclopropyl-4-fluoro-2-({3-[(E)-2-{5-[(diethylamino)methyl]pyridin-2-yl}ethenyl]-1H-indazol-6-yl}thio)benzamide] | 79.6 µg/mL (≈ 154 µM) | > 0.05 | – |
| CCN(CC)Cc1ccc(/C=C/c2n[nH]c3cc(Sc4ccccc4C(=O)NC)ccc23)nc1 [Compound I-90] | 31.9 µg/mL (≈ 67.6 µM) | 0.01 to 0.05 | – |
| CCN(CC)Cc1ccc(/C=C/c2n[nH]c3cc(Sc4c(F)cccc4C(=O)NC)ccc23)nc1 [Compound I-91] | 1650 µg/mL (≈ 3370 µM) | 0.01 to 0.05 | – |
| CCN(CC)Cc1ccc(/C=C/c2n[nH]c3cc(Sc4ccc(F)cc4C(=O)NC)ccc23)nc1 [Compound I-93] | – | 0.01 to 0.05 | – |
| CNC(=O)c1ccc(F)cc1Sc1ccc2c(/C=C/c3ccc(CN4CCCC4)cn3)n[nH]c2c1 [Compound I-94] | 31.8 µg/mL (≈ 65.2 µM) | 0.01 to 0.05 | – |
| CCN(CC)Cc1ccc(/C=C/c2n[nH]c3cc(Sc4ccccc4C(=O)NCCF)ccc23)nc1 [Compound I-98, 2-({3-[(E)-2-{5-[(diethylamino)methyl]pyridin-2-yl}ethenyl]-1H-indazol-6-yl}sulfanyl)-N-(2-fluoroethyl)benzamide] | 456 µg/mL (≈ 905 µM) | > 0.05 | – |
| CCN(CC)Cc1ccc(/C=C/c2n[nH]c3cc(Sc4ccccc4C(=O)NCC(F)F)ccc23)nc1 [Compound I-99] | 341 µg/mL (≈ 654 µM) | > 0.05 | – |
| CCN(CC)Cc1ccc(/C=C/c2n[nH]c3cc(Sc4ccccc4C(=O)NCC(F)(F)F)ccc23)nc1 [Compound I-100] | 209 µg/mL (≈ 387 µM) | > 0.05 | – |
| CNC(=O)c1ccccc1Sc1ccc2c(/C=C/c3ccc(CCN4CCCC4)cn3)n[nH]c2c1 [Compound I-107] | – | 0.01 to 0.05 | – |
| O=C(NC1CC1)c1ccccc1Sc1ccc2c(/C=C/c3cc(CN4CCCC4)ccn3)n[nH]c2c1 [Compound I-115] | – | 0.01 to 0.05 | – |
| CCNC(=O)c1cc(F)ccc1Sc1ccc2c(/C=C/c3cc(CCCN4CCCC4)ccn3)n[nH]c2c1 [Compound I-122] | – | – | > 60 µM |
